Like-named read-outs stand apart in the source and are kept apart here.
Legend:
[1] = tested on: A375 cells; assay: A375 cell proliferation inhibition test; assay type: cell-based; conditions: Homo sapiens, A-375, 72 h
Procedure: A375 cells (ATCC, CRL-1619) were cultured in DMEM complete medium (+10% FBS) in a CO2 incubator at 37°C for 48 h. The cells were trypsinised and counted, and then the density was adjusted to 1.67 × 10^4 cells/mL. 90 µL (1500 cells) of cells were inoculated into each well of a 96-well transparent bottom plate, and the plate was transferred to a CO2 incubator and the cells were cultured at 37°C overnight. After the cells were incubated overnight, 10 µL of the diluted compound (final concentration starting from 10 µM, 3-fold dilution, 11 concentrations) was added to each well using a multi-channel pipette. The […] control was a serum-free medium containing DMSO. After mixing evenly, the cells were placed in a CO2 incubator at 37°C for 72 h. After the incubation, the CellCounting-Lite®2.0 kit detection solution (Vazyme, DD1101-03) was taken out and returned to room temperature. 100 µL of CellCounting-Lite2.0 detection solution was added to each well, the plate was sealed with a sealing film, and the plate was placed on a shaker for shaking for 15 min (the whole process should be kept away from light). The Luminescence module of the microplate reader (BMG LRBTECH) was used to detect the fluorescence signal value LUM of each well. The formula Inhibition rate% = ((LUM Solvent−LUM Compound)/(LUM Solvent))∗100% [formula] was used to calculate the inhibition rate of the compound. The Graphpad software log(inhibitor) vs. response -- Variable slope (four parameters) equation was used to perform fitting analysis and calculate the IC50value of the sample. The ordinate of the data is the percentage of inhibition rate, and the abscissa is the logarithm of the sample concentration (Log10).

[2] = Pharmacokinetic test in mice; assay type: in vivo, ICR mice; conditions: i.g. (10 mg/kg), relative to Control compound 1
[3] = target: T1, BRAFV600E (Homo sapiens, UniProt P15056, V600E); assay: BRAFV600E enzyme activity test (ADP-Glo, MEK1K97R substrate); assay type: biochemical; conditions: Inhibitory activities of compounds on BRAFV600E
T1 construct: purchased ABCAM ab204154
T1 sequence (P15056 416-766 V600E limits assumed): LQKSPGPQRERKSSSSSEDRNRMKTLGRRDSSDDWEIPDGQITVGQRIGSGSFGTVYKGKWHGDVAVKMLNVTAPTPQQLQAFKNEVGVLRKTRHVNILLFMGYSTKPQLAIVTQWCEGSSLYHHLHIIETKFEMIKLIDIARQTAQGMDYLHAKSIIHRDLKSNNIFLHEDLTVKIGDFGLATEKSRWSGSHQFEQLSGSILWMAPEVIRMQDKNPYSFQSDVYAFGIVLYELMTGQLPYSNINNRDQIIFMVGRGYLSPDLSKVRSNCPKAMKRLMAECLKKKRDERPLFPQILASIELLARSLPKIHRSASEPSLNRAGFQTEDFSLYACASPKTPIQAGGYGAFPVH
Procedure: BRAFV600E (ABCAM, ab204154) and MEK1K97R (USBio, M2865-06J) proteins were diluted at an appropriate dilution factor using 1×Assay buffer (PH = 7.4 Tris-HCl buffer, supplemented with 10 mM MgCl2) such that the final concentration of BRAFV600E was 10 ng/µL and the final concentration of substrate MEK1K97R was 1 µM. 1 µL of BRAFV600E, 1 µL of compound serial dilution (final concentration starting from 2 µM, 5-fold dilution, 8 concentrations), and 6 µL of Assay buffer were pipetted to a 384-well reaction plate with a capacity of 20 µL. The plate was pre-incubated in a constant temperature incubator at 37°C for 30 min. 1 µL of 200 µM ATP and 1 µM MEK1 K97R were added to the reaction wells corresponding to the compound incubation, and mixed evenly by shaking, and preincubation was performed in a constant temperature incubator at 37°C for 60 min for enzymatic reaction. After the reaction was completed, 5 µL of the above reaction product was pipetted to another 384-well plate, and 5 µL of formulated ADP-Glo™ Reagent (Promega, V9101) was added and mixed evenly by pipetting, and then the plate was placed at room temperature for 40 min. 10 µL Kinase Detection Reagent was added to the 384-well plate and incubated at room temperature for 40 min. Finally, a microplate reader (BMG LRBTECH) was used and Luminescence module was selected to detect the LUM fluorescence value of each well (the gain value was fixed at 3600), and the formula Inhibition rate% = (1−(LUM Compound−LUM Background)/(LUM Solvent−LUM Background))∗100% [formula] was used to calculate the inhibition rate of the compound on BRAFV600E. The Graphpad software log(inhibitor) vs. response -- Variable slope (four parameters) equation was used to perform fitting analysis and calculate the IC50value of the sample.

[4] = Pharmacokinetic test in mice; assay type: in vivo, ICR mice; conditions: mouse, plasma; for Vd: read-out: Vdss
Procedure: 3.1 Experimental animals: Male ICR mice, 20-25 g, 6 mice/compound, purchased from Chengdu Dossy Experimental Animals Co., Ltd.
3.2 Experimental design: On the day of the experiment, the ICR mice were randomly grouped according to their body weights. The animals were fasted with water available for 12-14 h one day before the administration, and were fed 4 h after the administration. Table 3.1 Administration information
vehicle for intravenous administration: 5% DMA + 5% Solutol + 90% Saline; vehicle for intragastric administration: 0.5% MC
Before and after administration, 0.06 mL of blood was taken from the orbit under isoflurane anaesthesia and placed in an EDTAK2 centrifuge tube. The tube was centrifuged at 5000 rpm at 4°C for 10 min, and plasma was collected. The blood sampling time points for both the intravenous administration group and intragastric administration group were 0 min, 5 min, 15 min, 30 min, 1 h, 2 h, 4 h, 7 h, 24 h, and 48 h. Before analysis and detection, all samples were stored at -80°C, and the samples were quantitatively analysed by LC-MS/MS. Table 3.2 Pharmacokinetic parameters of test compounds in plasma of mice

[5] = Pharmacokinetic test in rats; assay type: in vivo, SD rats; conditions: rat, plasma; for Vd: read-out: Vdss
Procedure: 5.1 Experimental animals: Male SD rats, about 220 g, 6-8 weeks old, 6 rats/compound, purchased from Chengdu Dossy Experimental Animals Co., Ltd.
5.2 Experimental design: On the day of the experiment, the SD rats were randomly grouped according to their body weights. The animals were fasted with water available for 12-14 h one day before the administration, and were fed 4 h after the administration.
5.3 Test compounds: compounds in the examples and control compounds. Table 5.1 Administration information
Before and after administration, 0.1 ml of blood was taken from the orbit under isoflurane anaesthesia and placed in an EDTAK2 centrifuge tube. The tube was centrifuged at 5000 rpm at 4°C for 10 min, and plasma was collected. Blood sampling time points for the intravenous administration group: 0 min, 5 min, 15 min, 30 min, 1 h, 2 h, 4 h, 6 h, 8 h, 24 h, and 48 h; blood sampling time points for the intragastric administration group: 0 min, 5 min, 15 min, 30 min, 1 h, 2 h, 4 h, 6 h, 8 h, 24 h, and 48 h. Before analysis and detection, all samples were stored at -80°C, and the samples were quantitatively analysed by LC-MS/MS. Table 5.2 Pharmacokinetic parameters of test compounds in plasma of rats

[6] = Liver microsomal stability test (monkey liver microsomal model); assay type: in vitro ADME; conditions: monkey liver microsomes, 1 µM test compound, NADPH, 37°C
Procedure: In this experiment, liver microsomes of five species, including human, monkey, dog, rat and mouse, were used as in vitro models to evaluate the metabolic stability of the test compound.
At 37°C, 1 µM of the test compound was co-incubated with microsomal protein and coenzyme NADPH. At given time points of the reaction (5 min, 10 min, 20 min, 30 min, and 60 min), the reaction was terminated by adding ice-cold acetonitrile containing an internal standard. The LC-MS/MS method was used to measure the concentration of the test compound in the sample. T1/2 was calculated using the ln value of the percentage of drug remaining in the incubation system and the incubation time. In addition, the intrinsic clearance in liver microsomes CLint(mic) and the intrinsic clearance in liver CLint(Liver) were further calculated. Table 6 Results of test compounds in monkey liver microsomal model

[7] = Inhibitory activities of compounds on A375 cells, read-out: IC50/nM
[8] = A375 cells, values in text, read-out: IC50

Work on `N#Cc1c(NS(=O)(=O)N2CCC(=CF)C2)ccc(F)c1Oc1ccc2ncn(CC(F)F)c(=O)c2c1` (single isomer, unassigned) [Compound 15] yielded an IC50 [1, 7] of at most 10 nM.

`Cc1nnc2c3cc(Oc4c(F)ccc(NS(=O)(=O)N5CC6(CCC6)C5)c4C#N)ccc3ncn12` [Compound 1] showed an IC50 [1, 7] of at most 10 nM.

`N#Cc1c(NS(=O)(=O)N2CC3(CCC3)C2)ccc(F)c1Oc1ccc2ncc(N3CCOCC3)nc2c1` [Compound 2] showed an IC50 [1, 7] of 10 to 50 nM.

With `C=C1CN(S(=O)(=O)Nc2ccc(F)c(Oc3ccc4ncn(CC(F)F)c(=O)c4c3)c2C#N)C1` [Compound 3] the “Fold change in brain-blood ratio relative to control compound” value [2] was 10.8, the IC50 [3] was at most 10 nM and the AUC(0-t) ([4]; iv, i.v. (2.5 mg/kg)) was 225 µg·h/mL. The clearance ([4]; iv, i.v. (2.5 mg/kg)) was 0.186 mL/min/kg, the half-life ([4]; iv, i.v. (2.5 mg/kg)) was 521 min and the Vd ([4]; iv, i.v. (2.5 mg/kg)) was 0.112 L/kg. It also gave a bioavailability ([4]; po, i.g. (10 mg/kg)) of 84.5%, an AUC(0-t) ([4]; po, i.g. (10 mg/kg)) of 762 µg·h/mL and a half-life ([4]; po, i.g. (10 mg/kg)) of 618 min. For the same compound, the IC50 [1, 8] was 0.14 nM, the IC50 [1, 7] was at most 10 nM and the AUC(0-t) ([5]; iv, i.v. (2.5 mg/kg)) was 41 µg·h/mL. For the same compound, the clearance ([5]; iv, i.v. (2.5 mg/kg)) was 5.46 mL/h/kg, the half-life ([5]; iv, i.v. (2.5 mg/kg)) was 1150 min and the Vd ([5]; iv, i.v. (2.5 mg/kg)) was 0.126 L/kg. For the same compound, the bioavailability ([5]; po, i.g. (10 mg/kg)) was 62.8%, the AUC(0-t) ([5]; po, i.g. (10 mg/kg)) was 1030 µg·h/mL and the half-life ([5]; po, i.g. (10 mg/kg)) was 834 min. For the same compound, the “Percentage of drug remaining after 60 min of incubation” value [6] was 56.1%.

Work on `CC(C)=C1CN(S(=O)(=O)Nc2ccc(F)c(Oc3ccc4ncn(CC(F)F)c(=O)c4c3)c2C#N)C1` [Compound 4] yielded an IC50 [1, 7] of 10 to 50 nM.

`C=C1CN(S(=O)(=O)Nc2ccc(F)c(Oc3ccc4ncn(CCF)c(=O)c4c3)c2C#N)C1` [Compound 5] gave an IC50 [1, 7] of at most 10 nM.

With `C=C1CCN(S(=O)(=O)Nc2ccc(F)c(Oc3ccc4ncn(CC(F)F)c(=O)c4c3)c2C#N)C1` [Compound 6] the “Fold change in brain-blood ratio relative to control compound” value [2] was 24.9, the AUC(0-t) ([4]; in vivo, iv, i.v. (2.5 mg/kg)) was 148 µg·h/mL and the clearance ([4]; in vivo, iv, i.v. (2.5 mg/kg)) was 0.282 mL/min/kg. The half-life ([4]; in vivo, iv, i.v. (2.5 mg/kg)) was 406 min, the Vd ([4]; in vivo, iv, i.v. (2.5 mg/kg)) was 0.118 L/kg and the AUC(0-t) ([4]; in vivo, po, i.g. (10 mg/kg)) was 373 µg·h/mL. It also gave a half-life ([4]; in vivo, po, i.g. (10 mg/kg)) of 268 min and an IC50 [1, 7] of at most 10 nM.

In the case of `CC=C1CN(S(=O)(=O)Nc2ccc(F)c(Oc3ccc4ncn(CC(F)F)c(=O)c4c3)c2C#N)C1` [Compound 7], the “Fold change in brain-blood ratio relative to control compound” value [2] is reported as 10.5, the IC50 [3] is reported as at most 10 nM and the AUC(0-t) ([4]; iv, i.v. (2.5 mg/kg)) is reported as 228 µg·h/mL. The clearance ([4]; iv, i.v. (2.5 mg/kg)) was 0.171 mL/min/kg, the half-life ([4]; iv, i.v. (2.5 mg/kg)) was 768 min and the Vd ([4]; iv, i.v. (2.5 mg/kg)) was 0.156 L/kg. It also gave a bioavailability ([4]; po, i.g. (10 mg/kg)) of 90.6%, an AUC(0-t) ([4]; po, i.g. (10 mg/kg)) of 825 µg·h/mL and a half-life ([4]; po, i.g. (10 mg/kg)) of 642 min. The IC50 [1, 8] was 0.66 nM, the IC50 [1, 7] was at most 10 nM and the AUC(0-t) ([5]; iv, i.v. (2.5 mg/kg)) was 376 µg·h/mL. The clearance ([5]; iv, i.v. (2.5 mg/kg)) was 6.54 mL/h/kg, the half-life ([5]; iv, i.v. (2.5 mg/kg)) was 852 min and the Vd ([5]; iv, i.v. (2.5 mg/kg)) was 0.096 L/kg. It also gave a bioavailability ([5]; po, i.g. (10 mg/kg)) of 81.3%, an AUC(0-t) ([5]; po, i.g. (10 mg/kg)) of 1220 µg·h/mL and a half-life ([5]; po, i.g. (10 mg/kg)) of 810 min. The “Percentage of drug remaining after 60 min of incubation” value [6] was 48.2%.

For `C=C1CC(Cn2cnc3ccc(Oc4c(F)ccc(NS(=O)(=O)N5CC6(CCC6)C5)c4C#N)cc3c2=O)C1` [Compound 9], the IC50 [1, 7] was 10 to 50 nM.
